Test results from the METLIN SMRT retention time set (Domingo-Almenara et al. 2019).

Assay: gradient 5% acetonitrile 3 min, to 50% in 2 min, to 85% in 15 min, held 3 min, 100 µL/min
Conditions: column: Zorbax Extend-C18 2.1 x 50 mm; eluents: water / acetonitrile, 0.1% formic acid
Procedure, shortened: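 A Zorbax Extend-C18 column (2.1 × 50 mm, 1.8 μm) run at 100 μL/min with water and acetonitrile, both containing 0.1% formic acid, separated mixtures of ~100 pure standards. The HPLC was coupled to a quadrupole time-of-flight mass spectrometer operated in positive and negative ionization mode, with dead and dwell volumes of 40 μL and 900 μL. Each retention time was taken from a computationally picked adduct peak that was then manually inspected.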

Row | Compound | RP-LC retention time
1 | CCSc1nnc(-c2nn(C)c3c2CN(C(=O)Nc2ccc(OC)cc2)CC3)n1CC | 809 s
2 | Cc1cc(-c2ccc(S(=O)(=O)N3CCN(c4ccccn4)CC3)c(C)c2)on1 | 697 s
3 | O=C1CCc2cc(NC(=O)C3CC3)ccc2N1 | 599 s
4 | CCOc1ccc(-c2nc(-c3ccc4c(c3)oc(=O)n4C)no2)cc1OCC | 1110 s
5 | O=S(=O)(Cc1ccccc1)N1CCC2(CCCCO2)CC1 | 868 s
6 | Cc1nc2cc3c(cc2n1CC(=O)NC(C)c1ccc2c(c1)OCCCO2)OCCO3 (stereo not drawn) | 634 s
7 | C=CCn1c(=O)c2ccccc2n(Cc2nc(-c3cc(OC)c(OC)c(OC)c3)no2)c1=O | 948 s
8 | O=S(=O)(Cc1ccccc1F)N1CCC(c2noc(COCC3CC3)n2)CC1 | 962 s
9 | CCOC(=O)c1nc(NCCc2cc(OC)ccc2OC)c2ccccc2n1 | 768 s
10 | COc1ccc(Cn2nc3c(S(=O)(=O)N4CCCCCC4)cccn3c2=O)cc1F | 941 s
11 | CCOc1ccc(N2C(=O)C3N=NN(Cc4nc(-c5ccc(Cl)cc5)no4)C3C2=O)cc1 (stereo not drawn) | 722 s
12 | CC[C@H](C)[C@H](NC(=O)N1C[C@@H]2C[C@@H](C1)c1cccc(=O)n1C2)C(=O)O | 598 s
13 | O=C(c1cn[nH]c1)N1CCCC1Cc1noc(C2CCCC2)n1 (stereo not drawn) | 692 s
14 | COc1cccc(CNC(=O)N2CCCC2c2cc(C)no2)c1 (stereo not drawn) | 706 s
15 | Cc1ccc(-c2ccc(-n3nc(C)c(S(=O)(=O)N4CCN(C(C)C)CC4)c3C)nn2)cc1C | 785 s
16 | CC1CCN(C(=O)c2ccc(OCC3CCN(C(=O)c4ccc(C#N)cc4)CC3)cc2)CC1 | 957 s
17 | CC1CCN(C(=O)c2cc(S(=O)(=O)N(C)CC(=O)N3CCN(c4ccccc4)CC3)c[nH]2)CC1 | 862 s
18 | CCOC(=O)c1noc2nc(C)nc(N3CCN(Cc4ccccc4)CC3)c12 | 616 s
19 | CC(C)CCNC(=O)N1CCN(c2ncccc2-c2nnc(C3CC3)o2)CC1 | 765 s
20 | CN(C)c1ncncc1N1CCC(C(=O)N2CCN(c3cccc(Cl)c3)CC2)CC1 | 722 s
21 | Cn1c(SCC(=O)N2CCCC2)nnc1-c1ccc2c(c1)OCCCO2 | 661 s

Row | Compound | RP-LC retention time
22 | CCOC(=O)C1=C(CN2CCOCC2)NC(=O)NC1c1ccc(OC(C)C)cc1 (stereo not drawn) | 628 s
23 | Cn1c(=O)c(=O)n(C)c2cc(N3CCCCC3)c(NC(=O)CN3CCCC3)cc21 | 599 s
24 | Clc1nc(Oc2ccccc2)nc(-c2cn(-c3ccccc3)c3ccccc23)n1 | 732 s
25 | CC(C)CN1CCN(C(=O)c2ccc(-c3cccs3)nc2)CC1 | 602 s
26 | CCCN(C)c1nccnc1OC1CCN(C(=O)C2CC2)C1 (stereo not drawn) | 724 s
27 | O=S(=O)(c1cccc2nsnc12)N1CCc2nc(-c3ccc(F)cc3)ncc2C1 | 1040 s
28 | CCCNC(=O)CC1Sc2ncccc2N(CC)C1=O (stereo not drawn) | 642 s
29 | CC1CCN(S(=O)(=O)c2ccc3nc(N4CCN(c5ccccn5)CC4)ccc3c2)CC1 | 691 s
30 | CCC(C(=O)NCCN1CCCC1)n1c2ccccc2c2cnn(C)c(=O)c21 (stereo not drawn) | 632 s
31 | CCCN(C)C(=O)c1ccc2c(c1)Sc1ncccc1C(=O)N2C(C)C | 760 s
32 | CCOc1ccc(NC(=O)N2CCN(CCn3c(C(C)C)nc4cccnc43)CC2)cc1 | 610 s
33 | Cc1csc(-c2cc(S(=O)(=O)N3CCOCC3)c(C)n2C)n1 | 824 s
34 | CCC(=O)NCc1nc2c(n1C)CN(S(=O)(=O)c1ccc(F)c(F)c1)CC2 | 571 s
35 | COc1ccccc1Oc1c(NS(=O)(=O)c2ccc(C(C)(C)C)cc2)nc(-c2ncccn2)nc1OCCO | 939 s
36 | CCc1cc(=O)n(CC(=O)Nc2ccc(Br)cc2F)c(N2CCOCC2)n1 | 853 s
37 | COc1ccc(Cl)cc1N(C)C(=O)C1CCCN(c2ncnc3c2nc2n3CCCCC2)C1 (stereo not drawn) | 871 s
38 | Cc1ccc(Cn2nc3c(S(=O)(=O)N4CCN(c5ccc(F)cc5)CC4)cccn3c2=O)c(C)c1 | 1080 s
39 | CC(C)N1CCN(C(=O)c2csc(-c3ccc(N4CCCC4)nc3)n2)CC1 | 559 s
40 | O=C(NC1CCCC1)c1nnc(-c2ccc(S(=O)(=O)N3CCOCC3)cc2)o1 | 804 s
41 | O=C1CCc2cc(NS(=O)(=O)Cc3cccc(Cl)c3)ccc2N1 | 938 s
42 | CCn1cnc2ccc(-c3noc(COc4ccccc4C)n3)cc21 | 807 s

Row | Compound | RP-LC retention time
43 | CCN1CCC2(CC1)N=C(c1ccc(Br)cc1)CC(c1cccc(OC)c1O)N2 (stereo not drawn) | 618 s
44 | CCCNC(=O)C1CCCN(c2ccc(SCC(=O)Nc3ccc(C(=O)OCC)cc3)nn2)C1 (stereo not drawn) | 701 s
45 | COc1cc(CN2C[C@@H]3C(=O)N(Cc4ccc5c(c4)OCO5)C(=O)[C@@H]3C2)cc(OC)c1 | 741 s
46 | Cn1c(C2CCN(S(=O)(=O)c3ccccc3Cl)CC2)cc(=O)n2nccc12 | 708 s
47 | O=C(C1=NN(Cc2ccc(F)cc2)c2cc(Cl)ccc2S1(=O)=O)N1CCOCC1 | 899 s
48 | COc1cc(OC)c(C(=O)CCCN2CCCC2)c(OC)c1 | 666 s
49 | Cc1cccc(Nc2c(-c3nc(C)no3)cnc3nc(C)ccc23)c1 | 762 s
50 | COc1ccc(Cc2nc(Cn3ccnc3)no2)cc1OC | 592 s
51 | NC(=O)CS(=O)C(c1ccccc1)c1ccccc1 (stereo not drawn) | 710 s
52 | Cc1cccc(C)c1NC(=O)CN1CCCC1=O | 697 s
53 | CCc1ccc(S(=O)(=O)N2CCCC2c2nc(-c3ccc(Cl)cc3)no2)cc1 (stereo not drawn) | 1290 s
54 | O=C(NCc1ccccc1)N1[C@H]2CC[C@@H]1c1cnc(-c3ccccc3)nc1C2 | 865 s
55 | COC(=O)C1=C(N)Oc2cc(C)n(CCN(C)C)c(=O)c2C1c1cccc(OC)c1 (stereo not drawn) | 609 s
56 | Fc1ccccc1-c1noc(N2CCOCC2)n1 | 796 s
57 | COc1ccc(C2(C(=O)N3CCC4(CC3)C(OC)C(=O)N4c3cccc(F)c3)CC2)cc1 (stereo not drawn) | 901 s
58 | Cc1ccc(-c2ccc(-n3nc(C)c(S(=O)(=O)N4CCOCC4)c3C)nn2)cc1C | 1060 s
59 | CSc1ccc(-c2nc3ccc(C)cn3c2Nc2ccc(C)cc2)cc1 | 819 s
60 | CCc1noc(NC(C)=O)c1-c1ccc(C)c(S(=O)(=O)NC2CCCCC2)c1 | 839 s
61 | Cc1nc(-c2csc(S(=O)(=O)N3CCN(c4cccc(Cl)c4)CC3)c2)sc1C | 1270 s

More lines, now with the values ahead:

Row | RP-LC retention time | Compound
62 | 896 s | COc1ccc(C)cc1NC(=O)Cn1nc2c(Oc3ccccc3C)nccn2c1=O
63 | 827 s | O=C(Nc1cccc(F)c1)N1CCC(N2CCN(Cc3ccccc3)C2=O)CC1
64 | 716 s | O=C(Nc1cccs1)Nc1ccccc1NC(=O)c1ccco1
65 | 699 s | CCN1CCN(c2cc(C)c3cc(NC(=S)N4CCC(Cc5ccccc5)CC4)ccc3n2)CC1
66 | 789 s | CN1C(=O)c2cccnc2Sc2cc(C(=O)N3CCc4ccccc43)ccc21
67 | 744 s | O=C(CCc1ccccc1)Nc1cnc(N2CCOCC2)nc1
68 | 614 s | O=C(CS(=O)(=O)Cc1ccccc1)Nc1nc(-c2ccccn2)cs1
69 | 1320 s | CCn1ccc2c(cc(C(=O)Nc3ccc(Cl)cc3C)n2C)c1=O
70 | 778 s | N#Cc1ccc(C(=O)NC(Cc2ccccc2)c2nnc(N3CCCC3)o2)cc1 (stereo not drawn)
71 | 1030 s | CCc1nn2c(CNC(=O)c3cc(C)cc(C)c3)c(-c3ccccc3)nc2s1
72 | 816 s | Cc1nc(-c2ccccc2)nn1C1CCN(S(=O)(=O)c2cccs2)C1 (stereo not drawn)
73 | 853 s | O=C(c1ccco1)N1CCCC1c1nc(-c2ccccc2)no1 (stereo not drawn)
74 | 888 s | Cn1c(=O)c(N2CCC(NC(=O)Nc3ccc(F)cc3F)CC2)nc2ccccc21
75 | 760 s | O=C(NCCn1c(=O)n(Cc2ccccc2)c2cccnc21)C1CCCC1
76 | 897 s | CSc1ccc(NC(=O)NC2CCN(c3ccc(C)c(C)c3)C2=O)cc1 (stereo not drawn)
77 | 715 s | CNC(=O)C1Cc2ccccc2N1C(=O)c1ccccc1SC(F)F (stereo not drawn)
78 | 943 s | Cn1nc(-c2nnc(-c3ccccc3Cl)o2)c2c1CCN(C(=O)c1ccc(C(F)(F)F)cc1)C2
79 | 1250 s | Cc1c(Cl)cccc1NC(=O)C1CCCN(c2nc3c(s2)c(C)nn3-c2ccccc2)C1 (stereo not drawn)
80 | 598 s | COc1ccccc1CN[C@@H]1CCCN[C@@H]1c1ccccc1
81 | 867 s | COc1ccc(OC)c(NC(=O)N2CCCn3nc(-c4cccs4)cc3C2)c1
82 | 795 s | COCCn1cc(CCNC(=O)Nc2cc(Cl)ccc2C)c2cccnc21
83 | 896 s | Cc1c(Cl)cccc1-n1ccn2cc(-c3ccc(F)cc3)nc2c1=O
84 | 566 s | O=C(NCCc1nc2ccccc2n1CC(=O)N1CCCC1)c1cccnc1
85 | 857 s | O=S(=O)(c1ccc2nncn2c1)N(Cc1cccc(F)c1)c1ccc(F)cc1
86 | 671 s | O=C(Cn1c(=O)oc2ccccc21)NCC1CCN(C(=O)c2ccccc2F)CC1
87 | 977 s | CCOC(=O)c1[nH]c(C)c(CN(Cc2ccco2)C(=O)Cc2ccccc2)c1C
88 | 853 s | CC(=O)Oc1ccc(C(=O)NCCc2c[nH]c3ccc(Cl)cc23)cc1
